In US20260265832A1, “ADAR1 INHIBITORS FOR TREATING CANCER” (INSTITUE OF CANCER RESEARCH ROYAL CANCER HOSPITAL, priority 2023, published 2026):

Legend:
[1] = tested on: BRCA2-knockout DLD1 cells; test: Clonogenic survival and dose-response survival with 8-azaadenosine; format: cell-based; conditions: DLD1 BRCA2-KO vs BRCA2-wildtype; 8 days clonogenic, 7 days dose-response
Text: (§1) FIG. 7. A. Clonogenic survival of Brca1-wildtype and Brca1-mutant (Δ11) MEFs exposed to 8-azaadenosine for 8 days. B. Dose-response survival curves of Brca1-wildtype and Brca1-mutant (Δ11) MEFs exposed to increasing concentrations of 8-azaadenosine for 7 days. C. Clonogenic survival of BRCA2-wildtype and BRCA2-knockout DLD1 cells exposed to 8-azaadenosine for 8 days. D. Dose-response survival curves of BRCA2-wildtype and BRCA2-knockout DLD1 cells exposed to increasing concentrations of 8-azaadenosine for 7 days. All graphs show median. Error bars represent Standard Deviation (SD).

Brca1-mutant (Δ11) MEFs = test: as above; format: cell-based, mouse; conditions: MEF Brca1-Δ11 vs Brca1-wildtype; 8 days clonogenic, 7 days dose-response
Text: as §1

In the case of `Nc1ncnc2c1nnn2[C@@H]1O[C@H](CO)[C@@H](O)[C@H]1O` [8-azaadenosine, 3-(β-D-Ribofuranosyl)-3H-[1,2,3]triazolo[4,5-d]pyrimidin-7-amine], the “BRCA2 synthetic lethality (clonogenic survival, dose-response survival)” value [1] is reported as “BRCA2 synthetic lethality” and the “BRCA1 synthetic lethality (clonogenic survival, dose-response survival)” value (Brca1-mutant (Δ11) MEFs) is reported as “elicited BRCA1 synthetic lethality”.
